The values that follow come from patent publication US20230034660A1, “PEPTIDES THAT ENHANCE NMDA RECEPTOR FUNCTION AND USE THEREOF” (University of Pittsburgh - Of the Commonwealth System of …, priority 2019, published 2023).

The experiment has as its target T1, GluN2A-ZnT1 interactions (Rattus norvegicus, UniProt Q62720).
T1 construct: endogenous in cells; host or cells: rat embryonic (E16) cortical cultures, 3-4 weeks in vitro
T1 sequence (Q62720 1-507): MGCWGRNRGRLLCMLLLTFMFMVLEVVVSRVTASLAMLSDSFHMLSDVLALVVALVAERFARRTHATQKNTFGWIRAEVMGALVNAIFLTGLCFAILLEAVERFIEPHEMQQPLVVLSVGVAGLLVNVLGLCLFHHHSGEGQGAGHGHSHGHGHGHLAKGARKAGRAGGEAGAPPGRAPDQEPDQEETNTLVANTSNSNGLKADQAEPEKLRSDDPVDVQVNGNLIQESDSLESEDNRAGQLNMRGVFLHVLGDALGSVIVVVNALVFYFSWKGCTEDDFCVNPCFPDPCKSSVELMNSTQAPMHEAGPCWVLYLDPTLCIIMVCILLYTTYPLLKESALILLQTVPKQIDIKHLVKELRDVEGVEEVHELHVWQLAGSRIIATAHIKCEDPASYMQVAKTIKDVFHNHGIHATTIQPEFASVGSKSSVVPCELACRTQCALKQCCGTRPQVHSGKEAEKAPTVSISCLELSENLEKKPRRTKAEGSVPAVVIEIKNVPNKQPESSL
Kind of experiment: Proximity ligation assay (PLA) between GluN2A and ZnT1 in cortical cultures. The settings on record: 3 μM overnight, cortical cultures 21-25 DIV, compared to scramble controls in sister cultures. It is filed as cell-based. As to the method:
FIGS. 3A-3B: N2AZ disrupts ZnT1 binding to the GluN2A subunit of NMDAR. (FIG. 3A) Representative images of rat cortical cultures following proximity ligation assay (PLA) between GluN2A and ZnT1. The PLA immunofluorescently labeled sites of interaction between GluN2A and ZnT1 (white punctae). Additionally, Map2 is immunofluorescently labeled to visualize neuron morphology. Scale bar: 20 μm. Top row denotes PLA assay following overnight exposure to 3 μM scN2AZ, while bottom row denotes PLA assay following 3 μM N2AZ treatment. Insets show the localization of PLA punctae along a Map2 stained dendrite. […] Filled circles indicate the quantification of representative images in FIG. 3A. Error bars indicate mean±SEM. […]
Proximity ligation assays were performed using Duolink PLA kit. […] PLA puncta were counted automatically using Fiji ImageJ (Version 2.0) software using maximum intensity projection of 8 sequential images in the z plane. All images were normalized to the same intensity threshold using the Yen threshold setting prior to automated quantification of punctae.
Next, rat neuronal cortical cultures were utilized to determine whether N2AZ treatment was sufficient to disrupt GluN2A-ZnT1 binding in vitro. First, however, ZnT1 expression in cortical cultures was verified using quantitative PCR. […] Next, GluN2A-ZnT1 interactions in the cultures were quantified using a proximity ligation assay (PLA). […]

Take NDSYLRSSL [Peptide N2AZ]: the “amount of PLA puncta” value is “significantly reduced”.
